Test results as given in patent US8802700B2 (Vertex Pharmaceuticals Incorporated, priority 2010, dated 2014).

target: T1, ΔF508-CFTR (Homo sapiens, UniProt P13569, DEL508-508); assay: Membrane potential optical assay (FRET voltage-sensor dyes, VIPR), identification of potentiator compounds; assay type: cell-based; details: Table 3; assay not given
T1 construct: expressed in transfected cells
How it was run: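 Potentiator screen measured membrane potential via FRET between CC2-DMPE donor and DiSBAC2(3), read on VIPR II. Compound went in with the first addition of chloride-free gluconate bath; cells were ΔF508-CFTR-expressing NIH3T3 mouse fibroblasts, temperature-corrected at 27 °C for 24 h.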

T1 sequence (P13569 with tags, fused parts or gaps DEL508-508): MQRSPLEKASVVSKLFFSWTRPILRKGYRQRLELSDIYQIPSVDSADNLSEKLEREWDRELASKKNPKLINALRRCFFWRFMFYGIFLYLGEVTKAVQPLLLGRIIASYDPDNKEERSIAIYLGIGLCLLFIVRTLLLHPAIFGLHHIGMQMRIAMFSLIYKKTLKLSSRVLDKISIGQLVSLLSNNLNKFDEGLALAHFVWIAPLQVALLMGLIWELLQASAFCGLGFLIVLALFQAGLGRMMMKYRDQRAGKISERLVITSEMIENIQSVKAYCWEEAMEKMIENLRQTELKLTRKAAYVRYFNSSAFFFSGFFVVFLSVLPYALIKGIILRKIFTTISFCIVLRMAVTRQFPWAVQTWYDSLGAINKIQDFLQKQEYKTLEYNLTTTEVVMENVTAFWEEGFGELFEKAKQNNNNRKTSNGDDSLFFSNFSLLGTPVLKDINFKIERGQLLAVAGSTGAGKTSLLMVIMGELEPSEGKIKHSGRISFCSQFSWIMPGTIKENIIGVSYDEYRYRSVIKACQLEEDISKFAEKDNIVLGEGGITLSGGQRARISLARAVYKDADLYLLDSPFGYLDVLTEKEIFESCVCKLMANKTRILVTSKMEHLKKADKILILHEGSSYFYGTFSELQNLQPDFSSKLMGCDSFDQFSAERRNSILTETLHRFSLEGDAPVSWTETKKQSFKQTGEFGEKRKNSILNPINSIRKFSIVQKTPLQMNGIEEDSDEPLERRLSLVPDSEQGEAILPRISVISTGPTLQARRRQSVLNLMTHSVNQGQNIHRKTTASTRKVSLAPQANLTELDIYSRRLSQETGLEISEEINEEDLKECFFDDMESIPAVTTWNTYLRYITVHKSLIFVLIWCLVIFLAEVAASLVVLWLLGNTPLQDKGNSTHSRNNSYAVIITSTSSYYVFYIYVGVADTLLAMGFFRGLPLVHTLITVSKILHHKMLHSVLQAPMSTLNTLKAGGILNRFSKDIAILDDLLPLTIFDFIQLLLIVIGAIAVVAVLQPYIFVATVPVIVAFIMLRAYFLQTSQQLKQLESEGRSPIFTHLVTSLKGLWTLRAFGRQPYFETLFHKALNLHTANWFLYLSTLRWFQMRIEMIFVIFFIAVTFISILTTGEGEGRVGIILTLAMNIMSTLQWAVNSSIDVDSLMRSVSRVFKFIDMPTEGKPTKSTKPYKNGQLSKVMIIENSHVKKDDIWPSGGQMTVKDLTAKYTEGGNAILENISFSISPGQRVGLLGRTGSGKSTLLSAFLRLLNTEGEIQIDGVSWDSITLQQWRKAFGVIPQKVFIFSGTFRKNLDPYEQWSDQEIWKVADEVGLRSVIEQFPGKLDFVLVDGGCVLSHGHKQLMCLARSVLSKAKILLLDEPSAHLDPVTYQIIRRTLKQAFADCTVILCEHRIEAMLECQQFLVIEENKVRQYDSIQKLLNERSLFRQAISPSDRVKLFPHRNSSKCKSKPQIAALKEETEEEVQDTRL

Row | Compound | EC50 [µM]
1 | CS(=O)(=O)Nc1cccc(NC(=O)c2c[nH]c3ccccc3c2=O)c1 [Compound 214, N-(3-methylsulfonylaminophenyl)-4-oxo-1H-quinoline-3-carboxamide] | 10 to 25
2 | CCCc1ccc(NC(=O)c2c[nH]c3ccccc3c2=O)cc1 [Compound 226, 4-oxo-N-(4-propylphenyl)-1H-quinoline-3-carboxamide] | < 10
3 | CCCc1ccc(NC(C)=O)cc1NC(=O)c1c[nH]c2ccccc2c1=O [Compound 232, N-(5-acetylamino-2-propyl-phenyl)-4-oxo-1H-quinoline-3-carboxamide] | 10 to 25
4 | COc1ccccc1-c1cc2cc[nH]c2cc1NC(=O)c1c[nH]c2ccccc2c1=O [Compound 237, N-[5-(2-methoxyphenyl)-1H-indol-6-yl]-4-oxo-1H-quinoline-3-carboxamide] | < 10

same assay, conditions: Table 3; assay not given; read-out: % Activity (% Efficacy, relative efficacy)

Row | Compound | Emax [%]
5 | CC(C)(C)CC(=O)Nc1ccc(C(C)(C)C)c(NC(=O)c2c[nH]c3ccccc3c2=O)c1 [Compound 196, N-[5-(3,3-dimethylbutanoylamino)-2-tert-butyl-phenyl]-4-oxo-1H-quinoline-3-carboxamide] | 25 to 100
6 | O=C(Nc1ccc(C(F)(F)F)nc1)c1c[nH]c2ccccc2c1=O [Compound 197, 4-oxo-N-[6-(trifluoromethyl)-3-pyridyl]-1H-quinoline-3-carboxamide] | < 25
7 | O=C(Nc1ccc(F)cc1)c1c[nH]c2ccccc2c1=O [Compound 198, N-(4-fluorophenyl)-4-oxo-1H-quinoline-3-carboxamide] | 25 to 100
8 | Cc1ccccc1-c1ccccc1NC(=O)c1c[nH]c2ccccc2c1=O [Compound 199, N-[2-(o-tolyl)phenyl]-4-oxo-1H-quinoline-3-carboxamide] | 25 to 100
9 | O=C(Nc1ccc2c(c1)C(O)CCC2)c1c[nH]c2ccccc2c1=O (centres unmarked) [Compound 200, 1,4-dihydro-N-(1,2,3,4-tetrahydro-1-hydroxynaphthalen-7-yl)-4-oxoquinoline-3-carboxamide] | 25 to 100
10 | Cc1cccc(NC(=O)c2c[nH]c3ccccc3c2=O)c1C#N [Compound 201, N-(2-cyano-3-methyl-phenyl)-4-oxo-1H-quinoline-3-carboxamide] | < 25
11 | COc1ccc(Cl)cc1-c1ccccc1NC(=O)c1c[nH]c2ccccc2c1=O [Compound 202, N-[2-(5-chloro-2-methoxy-phenyl)phenyl]-4-oxo-1H-quinoline-3-carboxamide] | 25 to 100
12 | O=C(Nc1ccc2ccn(Cc3ccccc3)c2c1)c1c[nH]c2ccccc2c1=O [Compound 203, N-(1-benzyl-1H-indol-6-yl)-4-oxo-1H-quinoline-3-carboxamide] | 25 to 100
13 | CC1(C)CCOc2cc(NC(=O)c3c[nH]c4ccccc4c3=O)ccc21 [Compound 204, N-(4,4-dimethylchroman-7-yl)-4-oxo-1H-quinoline-3-carboxamide] | 25 to 100
14 | COc1ccc(Oc2ccc(C(F)(F)F)cc2NC(=O)c2c[nH]c3ccccc3c2=O)cc1 [Compound 205, N-[2-(4-methoxyphenoxy)-5-(trifluoromethyl)phenyl]-4-oxo-1H-quinoline-3-carboxamide] | 25 to 100
15 | Cc1cccc(Oc2ncccc2NC(=O)c2c[nH]c3ccccc3c2=O)c1C [Compound 206, N-[2-(2,3-dimethylphenoxy)-3-pyridyl]-4-oxo-1H-quinoline-3-carboxamide] | 25 to 100
16 | CCOC(=O)Cc1c[nH]c2cc(NC(=O)c3c[nH]c4ccccc4c3=O)ccc12 [Compound 207, 2-[6-[(4-oxo-1H-quinolin-3-yl)carbonylamino]-1H-indol-3-yl]acetic acid ethyl ester] | 25 to 100
17 | Cc1cc(C2C3CC4CC(C3)CC2C4)c(O)cc1NC(=O)c1c[nH]c2ccccc2c1=O (centres unmarked) [Compound 208, N-[4-(2-adamantyl)-5-hydroxy-2-methyl-phenyl]-4-oxo-1H-quinoline-3-carboxamide] | 25 to 100
18 | O=C(Nc1ccc(CO)cc1)c1c[nH]c2ccccc2c1=O [Compound 209, N-[4-(hydroxymethyl)phenyl]-4-oxo-1H-quinoline-3-carboxamide] | 25 to 100
19 | COc1nc2ccccc2c(OC)c1C(=O)Nc1ccccc1-c1ccccc1 [Compound 210, 2,4-dimethoxy-N-(2-phenylphenyl)-quinoline-3-carboxamide] | 25 to 100
20 | COc1ccc(C(C)(C)C)cc1NC(=O)c1c[nH]c2ccccc2c1=O [Compound 211, N-(2-methoxy-5-tert-butyl-phenyl)-4-oxo-1H-quinoline-3-carboxamide] | 25 to 100
21 | CC1=NN(c2cccc(NC(=O)c3c[nH]c4ccccc4c3=O)c2)C(=O)C1 [Compound 212, N-[3-(3-methyl-5-oxo-1,4-dihydropyrazol-1-yl)phenyl]-4-oxo-1H-quinoline-3-carboxamide] | < 25
22 | O=C(Nc1ccccc1-c1cc(Cl)ccc1Cl)c1c[nH]c2ccccc2c1=O [Compound 213, N-[2-(2,5-dichlorophenyl)phenyl]-4-oxo-1H-quinoline-3-carboxamide] | 25 to 100
23 | CS(=O)(=O)Nc1cccc(NC(=O)c2c[nH]c3ccccc3c2=O)c1 [Compound 214, N-(3-methylsulfonylaminophenyl)-4-oxo-1H-quinoline-3-carboxamide] | 25 to 100
24 | O=C(Nc1ccccc1)c1c[nH]c2ccccc2c1=O [Compound 215, 4-Oxo-N-phenyl-1H-quinoline-3-carboxamide] | 25 to 100
25 | O=C(Nc1nc2ccccc2[nH]1)c1c[nH]c2ccccc2c1=O [Compound 216, N-(3H-benzoimidazol-2-yl)-4-oxo-1H-quinoline-3-carboxamide] | < 25
26 | O=C(Nc1ccc2[nH]ncc2c1)c1c[nH]c2ccccc2c1=O [Compound 217, N-(1H-indazol-5-yl)-4-oxo-1H-quinoline-3-carboxamide] | 25 to 100

Row | Compound | Emax [%]
27 | CC1(c2cc(F)c(NC(=O)c3c[nH]c4ccc(F)cc4c3=O)cc2O)CCCCC1 [Compound 218, 6-fluoro-N-[2-fluoro-5-hydroxy-4-(1-methylcyclohexyl)-phenyl]-4-oxo-1H-quinoline-3-carboxamide] | 25 to 100
28 | O=C(Nc1cnccn1)c1c[nH]c2ccccc2c1=O [Compound 219, 4-oxo-N-pyrazin-2-yl-1H-quinoline-3-carboxamide] | < 25
29 | CC(C)(C)c1cc(C(C)(C)C)c(NC(=O)c2c[nH]c3ccccc3c2=O)c(O)c1O [Compound 220, N-(2,3-dihydroxy-4,6-ditert-butyl-phenyl)-4-oxo-1H-quinoline-3-carboxamide] | 25 to 100
30 | CCCc1ccc(NC(=O)c2c[nH]c3ccccc3c2=O)cc1NC(=O)OC [Compound 221, [5-[(4-oxo-1H-quinolin-3-yl)carbonylamino]-2-propyl-phenyl]aminoformic acid methyl ester] | 25 to 100
31 | N#Cc1c(Cl)cccc1NC(=O)c1c[nH]c2ccccc2c1=O [Compound 222, N-(3-chloro-2-cyano-phenyl)-4-oxo-1H-quinoline-3-carboxamide] | 25 to 100
32 | CSc1ccc(-c2ccccc2NC(=O)c2c[nH]c3ccccc3c2=O)cc1 [Compound 223, N-[2-(4-methylsulfanylphenyl)phenyl]-4-oxo-1H-quinoline-3-carboxamide] | 25 to 100
33 | O=C(Nc1ccc(-c2ccccc2CNC(=O)C(F)(F)F)cc1)c1c[nH]c2ccccc2c1=O [Compound 224, 4-oxo-N-[4-[2-[(2,2,2-trifluoroacetyl)aminomethyl]phenyl]phenyl]-1H-quinoline-3-carboxamide] | 25 to 100
34 | CCOC(=O)Nc1cc(NC(=O)c2c[nH]c3ccccc3c2=O)ccc1C(C)C [Compound 225, [2-isopropyl-5-[(4-oxo-1H-quinolin-3-yl)carbonylamino]phenyl]aminoformic acid ethyl ester] | 25 to 100
35 | CCCc1ccc(NC(=O)c2c[nH]c3ccccc3c2=O)cc1 [Compound 226, 4-oxo-N-(4-propylphenyl)-1H-quinoline-3-carboxamide] | 25 to 100
36 | O=C(Nc1ccccc1-c1nc2ccccc2[nH]1)c1c[nH]c2ccccc2c1=O [Compound 227, N-[2-(3H-benzoimidazol-2-yl)phenyl]-4-oxo-1H-quinoline-3-carboxamide] | < 25
37 | O=C(Nc1ccccc1C(O)c1ccccc1)c1c[nH]c2ccccc2c1=O (centres unmarked) [Compound 228, N-[2-(hydroxy-phenyl-methyl)phenyl]-4-oxo-1H-quinoline-3-carboxamide] | 25 to 100
38 | CSc1ccccc1NC(=O)c1c[nH]c2ccccc2c1=O [Compound 229, N-(2-methylsulfanylphenyl)-4-oxo-1H-quinoline-3-carboxamide] | 25 to 100
39 | Cc1cc2cc(NC(=O)c3c[nH]c4ccccc4c3=O)ccc2[nH]1 [Compound 230, N-(2-methyl-1H-indol-5-yl)-4-oxo-1H-quinoline-3-carboxamide] | 25 to 100
40 | COC(=O)c1cccc(-c2cc(C(C)(C)C)c(O)cc2NC(=O)c2c[nH]c3ccccc3c2=O)c1 [Compound 231, 3-[4-hydroxy-2-[(4-oxo-1H-quinolin-3-yl)carbonylamino]-5-tert-butyl-phenyl]benzoic acid methyl ester] | 25 to 100
41 | CCCc1ccc(NC(C)=O)cc1NC(=O)c1c[nH]c2ccccc2c1=O [Compound 232, N-(5-acetylamino-2-propyl-phenyl)-4-oxo-1H-quinoline-3-carboxamide] | 25 to 100
42 | CC(=O)N1CCc2ccc(NC(=O)c3c[nH]c4ccccc4c3=O)cc21 [Compound 233, N-(1-acetylindolin-6-yl)-4-oxo-1H-quinoline-3-carboxamide] | < 25
43 | O=C(Nc1cc2[nH]ccc2cc1C(F)(F)F)c1c[nH]c2ccccc2c1=O [Compound 234, 4-oxo-N-[5-(trifluoromethyl)-1H-indol-6-yl]-1H-quinoline-3-carboxamide] | 25 to 100
44 | CC(C)c1ccc(NC(=O)c2c[nH]c3ccccc3c2=O)cn1 [Compound 235, N-(6-isopropyl-3-pyridyl)-4-oxo-1H-quinoline-3-carboxamide] | 25 to 100
45 | O=C(Nc1ccc(C(F)(F)F)cc1)c1c[nH]c2ccccc2c1=O [Compound 236, 4-oxo-N-[4-(trifluoromethyl)phenyl]-1H-quinoline-3-carboxamide] | 25 to 100
46 | COc1ccccc1-c1cc2cc[nH]c2cc1NC(=O)c1c[nH]c2ccccc2c1=O [Compound 237, N-[5-(2-methoxyphenyl)-1H-indol-6-yl]-4-oxo-1H-quinoline-3-carboxamide] | 25 to 100
47 | CC(C)(C)OC(=O)N1CCC2(CCNc3cc(NC(=O)c4c[nH]c5ccccc5c4=O)ccc32)CC1 [Compound 238, 7′-[(4-oxo-1H-quinolin-3-ylcarbonyl)amino]-spiro[piperidine-4,4′(1′H)-quinoline], 2′,3′-dihydro-carboxylic acid tert-butyl ester] | 25 to 100
